tested on: Human primary T cells; test: IL-2 ELISA, human primary T cell, anti-CD3+CD28+ (whole cell assay); assay type: cell-based; conditions: Homo sapiens, T-cell, 24 h, human primary T cells stimulated with anti-CD3 + anti-CD28, 24 hours
Summary of the method: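 PBMC-derived T cells, pre-expanded on αCD3/αCD28 with IL-2 and then washed free of IL-2, were preincubated with compound for 1 hr at 37° C (100,000 cells/well). They were then stimulated on 1 μg/ml αCD3 plus 5 μg/ml αCD28 for 24 h, and supernatant IL-2 was measured by ELISA. The counter-assay used 0.5 ng/ml PMA plus 0.1 μM ionomycin instead.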

IC50 [nM]	Compound
< 250	CC(C)N1CCC(Oc2ccc(Nc3ncc(F)c(NC4CC(C)(C)NC(C)(C)C4)n3)cc2OC(F)F)CC1 [Compound I-104, N2-(4-(1-isopropylpiperidin-4-yloxy)-3-(difluoromethoxy)phenyl)-5-fluoro-N4-(2,2,6,6-tetramethylpiperidin-4-yl)pyrimidine-2,4-diamine]
< 250	CC(C)N1CCC(Oc2ccc(Nc3ncc(F)c(NC4CC(C)(C)N(C)C(C)(C)C4)n3)cc2OC(F)F)CC1 [Compound I-105, N2-(4-(1-isopropylpiperidin-4-yloxy)-3-(difluoromethoxy)phenyl)-5-fluoro-N4-(1,2,2,6,6-pentamethylpiperidin-4-yl)pyrimidine-2,4-diamine]
500 to 1000	CC1(C)CC(Nc2nc(Nc3cc(OC(F)F)cc(C(F)(F)F)c3)ncc2F)CC(C)(C)N1 [Compound I-106, N2-(3-(difluoromethoxy)-5-(trifluoromethyl)phenyl)-5-fluoro-N4-(2,2,6,6-tetramethylpiperidin-4-yl)pyrimidine-2,4-diamine]
250 to 500	CN1C(C)(C)CC(Nc2nc(Nc3cc(OC(F)F)cc(C(F)(F)F)c3)ncc2F)CC1(C)C [Compound I-107, N2-(3-(difluoromethoxy)-5-(trifluoromethyl)phenyl)-5-fluoro-N4-(1,2,2,6,6-pentamethylpiperidin-4-yl)pyrimidine-2,4-diamine]
< 250	CCOc1ccc(Nc2ncc(F)c(NC3CC(C)(C)NC(C)(C)C3)n2)cc1OC(F)F [Compound I-108, N2-(3-(difluoromethoxy)-4-ethoxyphenyl)-5-fluoro-N4-(2,2,6,6-tetramethylpiperidin-4-yl)pyrimidine-2,4-diamine]
< 250	CCOc1ccc(Nc2ncc(F)c(NC3CC(C)(C)N(C)C(C)(C)C3)n2)cc1OC(F)F [Compound I-109, N2-(3-(difluoromethoxy)-4-ethoxyphenyl)-5-fluoro-N4-(1,2,2,6,6-pentamethylpiperidin-4-yl)pyrimidine-2,4-diamine]

same assay, conditions: human primary T cells stimulated with anti-CD3 + anti-CD28, 24 hours

Compound	IC50 [nM]
CN1C(C)(C)CC(Nc2nc(Nc3cccc(-n4nnnc4SCC(F)(F)F)c3)ncc2C(N)=O)CC1(C)C [Compound I-71, 5-aminocarbonyl-N4-(1,2,2,6,6-pentamethylpiperidin-4-yl)-N2-{3-[5-(2,2,2-trifluoroethyl)thio]-1H-tetrazol-1-yl}phenyl-2,4-pyrimidinediamine]	250 to 500
CC1(C)CC(Nc2nc(Nc3cccc(-n4nnnc4SCC(F)(F)F)c3)ncc2C(N)=O)CC(C)(C)N1 [Compound I-72, 5-aminocarbonyl-N4-(2,2,6,6-tetramethylpiperidin-4-yl)-N2-{3-[5-(2,2,2-trifluoroethyl)thio]-1H-tetrazol-1-yl}phenyl-2,4-pyrimidinediamine]	> 1000
CN1C(C)(C)CC(Nc2nc(Nc3ccc(F)c(-n4cnnn4)c3)ncc2C#N)CC1(C)C [Compound I-73, 5-cyano-N2-[4-fluoro-3-(1H-tetrazol-1-yl)]phenyl-N4-(1,2,2,6,6-pentamethylpiperidin-4-yl)-2,4-pyrimidinediamine]	< 250
CCCc1nnnn1-c1cc(Nc2ncc(F)c(NC3CC(C)(C)NC(C)(C)C3)n2)ccc1OC [Compound I-74, 5-fluoro-N2-[4-methoxy-3-(5-propyl-1H-tetrazol-1-yl)]phenyl-N4-(2,2,6,6-tetramethylpiperidin-4-yl)-2,4-pyrimidinediamine]	< 250
CCCc1nnnn1-c1cc(Nc2ncc(C(N)=O)c(NC3CC(C)(C)N(C)C(C)(C)C3)n2)ccc1OC [Compound I-75, 5-aminocarbonyl-N2-[4-methoxy-3-(5-propyl-1H-tetrazol-1-yl)]phenyl-N4-(1,2,2,6,6-pentamethylpiperidin-4-yl)-2,4-pyrimidinediamine]	500 to 1000
CCCc1nnnn1-c1cc(Nc2ncc(C(N)=O)c(NC3CC(C)(C)NC(C)(C)C3)n2)ccc1OC [Compound I-76, 5-aminocarbonyl-N2-[4-methoxy-3-(5-propyl-1H-tetrazol-1-yl)]phenyl-N4-(2,2,6,6-tetramethylpiperidin-4-yl)-2,4-pyrimidinediamine]	> 1000
CC1(C)CC(Nc2nc(Nc3ccc(F)c(-n4cnnn4)c3)ncc2C#N)CC(C)(C)N1 [Compound I-77, 5-cyano-N2-[4-fluoro-3-(1H-tetrazol-1-yl)]phenyl-N4-(2,2,6,6-tetramethylpiperidin-4-yl)-2,4-pyrimidinediamine]	250 to 500
CN1C(C)(C)CC(Nc2nc(Nc3cccc(-n4nnnc4SCC(F)(F)F)c3)ncc2C#N)CC1(C)C [Compound I-78, 5-cyano-N4-(1,2,2,6,6-pentamethylpiperidin-4-yl)-N2-{3-[5-(2,2,2-trifluoroethyl)thio]-1H-tetrazol-1-yl}phenyl-2,4-pyrimidinediamine]	< 250
CC1(C)CC(Nc2nc(Nc3cccc(-n4nnnc4SCC(F)(F)F)c3)ncc2C#N)CC(C)(C)N1 [Compound I-79, 5-cyano-N4-(2,2,6,6-tetramethylpiperidin-4-yl)-N2-{3-[5-(2,2,2-trifluoroethyl)thio]-1H-tetrazol-1-yl}phenyl-2,4-pyrimidinediamine]	< 250
CCCc1nnnn1-c1cc(Nc2ncc(C#N)c(NC3CC(C)(C)N(C)C(C)(C)C3)n2)ccc1OC [Compound I-80, 5-cyano-N2-[4-methoxy-3-(5-propyl-1H-tetrazol-1-yl)]phenyl-N4-(1,2,2,6,6-pentamethylpiperidin-4-yl)-2,4-pyrimidinediamine]	< 250
CCCc1nnnn1-c1cc(Nc2ncc(C#N)c(NC3CC(C)(C)NC(C)(C)C3)n2)ccc1OC [Compound I-81, 5-cyano-N2-[4-methoxy-3-(5-propyl-1H-tetrazol-1-yl)]phenyl-N4-(2,2,6,6-tetramethylpiperidin-4-yl)-2,4-pyrimidinediamine]	250 to 500
CCc1nnnn1-c1cc(Nc2ncc(C(N)=O)c(NC3CC(C)(C)NC(C)(C)C3)n2)ccc1OC(F)F [Compound I-83, 5-aminocarbonyl-N2-[4-difluoromethoxy-3-(5-ethyl-1H-tetrazol-1-yl)]phenyl-N4-(2,2,6,6-tetramethylpiperidin-4-yl)-2,4-pyrimidinediamine]	> 1000
CCc1nnnn1-c1cc(Nc2ncc(C#N)c(NC3CC(C)(C)NC(C)(C)C3)n2)ccc1OC(F)F [Compound I-84, 5-cyano-N2-[4-difluoromethoxy-3-(5-ethyl-1H-tetrazol-1-yl)]phenyl-N4-(2,2,6,6-tetramethylpiperidin-4-yl)-2,4-pyrimidinediamine]	> 1000
CC1(C)CC(Nc2nc(Nc3cccc(-c4nnn[nH]4)c3)ncc2C#N)CC(C)(C)N1 [Compound I-85, 5-Cyano-N4-(2,2,6,6-tetramethylpiperidin-4-yl)-N2-[3-(tetrazol-5-yl)]phenyl-2,4-pyrimidinediamine]	> 1000
CC(C)n1nnnc1-c1cccc(Nc2ncc(C#N)c(NC3CC(C)(C)N(C)C(C)(C)C3)n2)c1 [Compound I-88, 5-Cyano-N2-{3-[1-N-isopropyl-(tetrazol-5-yl)]}phenyl-N4-(1,2,2,6,6-pentamethylpiperidin-4-yl)-2,4-pyrimidinediamine]	< 250
COc1ccc(Nc2ncc(F)c(NC3CC(C)(C)NC(C)(C)C3)n2)cc1-n1c(C)ccc1C [Compound I-93, N2-[3-(2,5-Dimethyl-pyrrol-1-yl)-4-methoxy]phenyl-5-fluoro-N4-(2,2,6,6-tetramethylpiperidin-4-yl)-2,4-pyrimidinediamine]	< 250

Second part, the compound after the results:

IC50 [nM]	Compound
< 250	CN1C(C)(C)CC(Nc2nc(Nc3cccc(-c4nnnn4C4CC4)c3)ncc2C#N)CC1(C)C [Compound I-94, 5-Cyano-N2-{3-[1-N-cyclopropyl-(tetrazol-5-yl)]}phenyl-N4-(1,2,2,6,6-pentamethylpiperidin-4-yl)-2,4-pyrimidinediamine]
250 to 500	CC1(C)CC(Nc2nc(Nc3cccc(-c4nnnn4C4CC4)c3)ncc2C#N)CC(C)(C)N1 [Compound I-95, 5-Cyano-N2-{3-[1-N-cyclopropyl-(tetrazol-5-yl)]}phenyl-N4-(2,2,6,6-tetramethylpiperidin-4-yl)-2,4-pyrimidinediamine]
< 250	CN1C(C)(C)CC(Nc2nc(Nc3cccc(-c4nnnn4CCF)c3)ncc2C#N)CC1(C)C [Compound I-96, 5-Cyano-N2-{3-[1-N-(2-fluoroethyl)-(tetrazol-5-yl)]}phenyl-N4-(1,2,2,6,6-pentamethylpiperidin-4-yl)-2,4-pyrimidinediamine]
> 1000	CC1(C)CC(Nc2nc(Nc3cccc(-c4nnnn4CCF)c3)ncc2C#N)CC(C)(C)N1 [Compound I-97, 5-Cyano-N2-{3-[1-N-(2-fluoroethyl)-(tetrazol-5-yl)]}phenyl-N4-(2,2,6,6-tetramethylpiperidin-4-yl)-2,4-pyrimidinediamine]
< 250	Cc1ccc(C)n1-c1cc(Nc2ncc(F)c(NC3CC(C)(C)N(C)C(C)(C)C3)n2)ccc1F [Compound I-100, N2-[3-(2,5-Dimethyl-pyrrol-1-yl)-4-fluoro]phenyl-5-fluoro-N4-(1,2,2,6,6-pentamethylpiperidin-4-yl)-2,4-pyrimidinediamine]
250 to 500	Cc1ccc(C)n1-c1cc(Nc2ncc(F)c(NC3CC(C)(C)NC(C)(C)C3)n2)ccc1F [Compound I-101, N2-[3-(2,5-Dimethyl-pyrrol-1-yl)-4-fluoro]phenyl-5-fluoro-N4-(2,2,6,6-tetramethylpiperidin-4-yl)-2,4-pyrimidinediamine]
250 to 500	Cc1ccc(C)n1-c1cc(Nc2ncc(F)c(NC3CC(C)(C)N(C)C(C)(C)C3)n2)ccc1C#N [Compound I-102, N2-[4-Cyano-3-(2,5-dimethyl-pyrrol-1-yl)]phenyl-5-fluoro-N4-(1,2,2,6,6-pentamethylpiperidin-4-yl)-2,4-pyrimidinediamine]
500 to 1000	Cc1ccc(C)n1-c1cc(Nc2ncc(F)c(NC3CC(C)(C)N(C)C(C)(C)C3)n2)ccc1OC(=O)NC(C)C [Compound I-103, N2-[3-(2,5-Dimethyl-pyrrol-1-yl)-4-(isopropylaminocarboxyloxy)]phenyl-5-fluoro-N4-(1,2,2,6,6-pentamethylpiperidin-4-yl)-2,4-pyrimidinediamine]

Reference: patent US9149475B2, “Protein kinase C inhibitors and uses thereof” (Rigel Pharmaceuticals, Inc., priority 2009, dated 2015)
